From patent publication US9339509B2, “Methods of use to orally and topically treat acne and other skin conditions by administering a 19-nor containing vitamin D analog with or without a retinoid” (Wisconsin Alumni Research Foundation, priority 2006, dated 2016)
Entries after “also recorded” stand apart in the source; their conditions may differ.

What was measured:
Rhino mouse [1] = assay: Comedolytic effect of topical application to the Rhino mouse (comedone area); format: in vivo; conditions: for response vs control in vivo at 0.217 µmol/kg: dose 217 nmol/kg; for comedone area relative to vehicle-treated group (FIG. 8, 9, 10): 217 nmole/kgBW/day; for response vs control in vivo at 0.069 µmol/kg: dose 69 nmol/kg; for comedone area (FIG. 7, FIG. 10): 69 nmole/kgBW/day; for comedone area relative to vehicle-treated group (FIG. 11): 72 h after final dose
Excerpt: (§1) Rhino mice were used to topically and orally test the compounds and compositions of the invention. The Rhino mouse is a well-established animal model used to study the comedolytic effects of anti-acne agents including retinoids. (See Boulcier M et al., Experimental Models in Skin Pharmacology, 1990, In Pharmacological Reviews 42:127-15). Mirshahpanah and Maibach, 2007, Cutaneous and Ocular Toxicology 26:195-202). The Rhino mouse model was used to study the therapeutic potential of 2-Methylene-19-nor-20(S)-1α-hydroxy-bishomopregnacalciferol (2MBisP), 19-Nor-26,27-dimethylene-20(S)-2-methylene-1α,25-dihydroxyvitamin D3 (CAGE-3), NEL, 24R-2MD2, Vit-III (17-20E), 2MPregna, 2MP, 20R-2MbisP, 2MTrisP, FF-44, FF-55, HPBS, VD-03 and atRA.
(§2) Animals and dose administration. Rhino mice 6-10 weeks old were dosed via the oral and/or topical route. In the majority of studies, the mice were dosed daily. In one topical study, the efficacy of daily versus intermittent (Monday/Wednesday/Friday) dosing was compared. The mice were weighed three times per week and doses were adjusted weekly based on body weight. The topical formulations were applied to the back of the animal in a maximum volume of 110 μL. The topical formulations were made by mixing the APIs with a topical carrier comprising 70 vol % propylene glycol and 30 vol % ethanol or 30 vol % propylene glycol and 70 vol % ethanol, as indicated. The topical vehicle control was the vehicle carrier solution matched to the formulation containing API and vehicle carrier.
(§3) The oral formulation was made by mixing the APIs with Wesson® soybean oil or NeoBee® oil. The oral dose was delivered to the back of the mouth of each mouse. Mice were sacrificed 4 hours after the final oral dose and 72 hours after the final topical dose. At sacrifice, the dorsal skin was collected for histological studies.
(§4) Comedolytic effect. The extent of the comedolytic effect (i.e., efficacy) was assessed by measuring the average area of the comedones, whereby the smaller the area, the larger the effect. The comedone area was determined by histological analysis of tissue sections based on a method developed in our lab (see FIG. 2). Skin was fixed overnight in 4% paraformaldehyde at 4 deg. C. with gentle agitation and dehydrated the next day into 100% methanol. Samples were embedded in paraffin and a total of nine 10 micron sections 150 microns apart were prepared from each Rhino mouse. Five of the nine sections were digitally imaged (6× magnification) for comedone analysis using Metamorph Imaging Software (trace function). The perimeter of each comedone on the images taken from the 5 sections was then traced using a Wacom Intuos 3 Graphics Tablet interfaced with the software. The number of pixels comprising the area of each individual comedone was obtained and transferred to an Excel spreadsheet, and the mean number of pixels per comedone was obtained for each Rhino mouse. For comedones that were completely healed (area=0) a pixel value approaching 0 (<10) was entered into the spreadsheet. The individual comedone area average for each mouse was then used to calculate the treatment group mean. Results in the figures are expressed in terms of mean±standard error of the mean.
Preparation of topical formulations containing 2MBisP, CAGE-3, 24R-2MD2, VitIII (17-20E), NEL, VD-03, 2MPregna, 2MP, 20R-2MBisP, 2MTrisP, FF-44, FF-55, and HPBS. Separate concentrated ethanolic stocks of 2MBisP, CAGE-3, 24R-2MD2, VitIII (17-20E) and NEL were diluted to a final concentration containing 70 vol % propylene glycol and 30 vol % ethanol or 30 vol % propylene glycol and 70 vol % ethanol as the excipient carrier system. The mixture was thoroughly mixed. The topical dosing formulation delivered the desired dosing amount of drug on a per kilogram body weight basis. A dose ranging from 100-110 μL in volume was administered to the back of the mouse. An average weight of 24 or 30 g/mouse was assumed in dose volume calculations. […]

Rhino mouse [2] = assay: Comedolytic effect of oral administration to the Rhino mouse (comedone area); format: in vivo; conditions: oral daily 24 days
Excerpt: as §1, §2, §3, §4
Preparation of oral dosing solutions containing 2MBisP, CAGE-3, 24R-2MD2, VitIII (17-20E) and NEL. Separate concentrated stocks of 2MBisP, CAGE-3, 24R-2MD2, VitIII (17-20E) and NEL were obtained in ethanol. The concentration was determined spectrophotometrically using a molar extinction coefficient=42,000 and a λmax=252.7. […] The final dose was delivered in ≦50 μL of oil.
Preparation of oral atRA dosing formulation. A concentrated stock solution containing atRA was prepared in dichloromethane. The atRA concentrated stock solution was diluted into ethanol. The concentration of atRA in that diluted stock solution was determined spectrophotometrically, whereby the molar extinction coefficient=45,200 and λmax=350. The purity of atRA was determined to be >99% by HPLC. […]

[3] = Mus musculus, 504 h, daily topical ca. 3 weeks, 70 vol % ethanol/30 vol % propylene glycol, mean ± SEM, read-out: Comedone Area (% Vehicle)
[4] = daily topical 3 weeks, 70 vol % ethanol/30 vol % propylene glycol
[5] = topical 217 nmole/kgBW daily (total of 22 doses), 70 vol % ethanol/30 vol % propylene glycol
[6] = topical 217 nmole/kgBW intermittently Monday, Wednesday, Friday (total of 10 doses), 70 vol % ethanol/30 vol % propylene glycol

“2-(3′hydroxypropyl-1′,2′-idene)-19,23,24-trinor-(20S)-1α-hydroxyvitamin D3 [HPBS]” was tested, and the “Comedone Area (% Vehicle)” value (Rhino mouse [1]; daily topical ca. 3 weeks, 70 vol % ethanol/30 vol % propylene glycol, dose 217 to 122 nmol/kg (changed on day 3 or day 10), mean ± SEM) was 74 ± 10 % Vehicle.
Molecule C=C1/C(=C\C=C2/CCC[C@]3(C)[C@@H]([C@H](C)CCCC(C)(C)O)CC[C@@H]23)C[C@@H](O)C[C@@H]1O [1,25(OH)2D3, 1,25-DIHYDROXYVITAMIN D3, reference compound] has a response vs control in vivo at 0.006 µmol/kg (Rhino mouse [1]; Mus musculus, 504 h, daily topical ca. 3 weeks, 70 vol % ethanol/30 vol % propylene glycol, dose 6.0 nmol/kg, mean ± SEM, read-out: Comedone Area (% Vehicle)) of 187 ± 30%.
C=C1[C@H](O)CC(=C/C=C2\CCCC3(C)C2CCC3C(C)C)C[C@H]1O (stereo partly drawn) [2MP, 1α-hydroxy-2-methylene-19-nor-homopregnacalciferol] was tested, and the response vs control in vivo at 0.217 µmol/kg (Rhino mouse [1]; [3]) was 92 ± 20% and the “comedone area relative to vehicle-treated group (FIG. 8, 9, 10)” value (Rhino mouse [1]; [4]) was “smaller reduction in comedone area”.
In the case of C=C1[C@H](O)CC(=C/C=C2\CCCC3(C)C(CC)CCC23)C[C@H]1O (stereo partly drawn) [2MPregna, 2-methylene-19-nor-1α-hydroxy-pregnacalciferol], the response vs control in vivo at 0.217 µmol/kg (Rhino mouse [1]; [3]) is reported as 63 ± 14% and the “comedone area relative to vehicle-treated group (FIG. 8, 9, 10)” value (Rhino mouse [1]; [4]) is reported as “significant reduction in comedone area”.
In the case of C=C1[C@H](O)CC(=C/C=C2\CCC[C@@]3(C)C2CCC3[C@@H](C)CCC)C[C@H]1O (stereo partly drawn) [2MTrisP, 2-methylene-(20S)-19-nor-1α-hydroxy-trishomopregnacalciferol], the response vs control in vivo at 0.217 µmol/kg (Rhino mouse [1]; [3]) is reported as 66 ± 9% and the “comedone area relative to vehicle-treated group (FIG. 8, 9, 10)” value (Rhino mouse [1]; [4]) is reported as “significant reduction in comedone area”.
In the case of C=C1[C@H](O)CC(=C/C=C2\CCC[C@@]3(C)C2CCC3[C@H](C)CC)C[C@H]1O (stereo partly drawn) [20R-2MBisP, (20R)-1α-hydroxy-2-methylene-19-nor-bishomopregnacalciferol], the response vs control in vivo at 0.217 µmol/kg (Rhino mouse [1]; [3]) is reported as 136 ± 17%, the response vs control in vivo at 0.694 µmol/kg (Rhino mouse [1]; Mus musculus, 504 h, daily topical ca. 3 weeks, 70 vol % ethanol/30 vol % propylene glycol, dose 694 nmol/kg, mean ± SEM, read-out: Comedone Area (% Vehicle)) is reported as 45 ± 6% and the response vs control in vivo at 2.187 µmol/kg (Rhino mouse [1]; Mus musculus, 504 h, daily topical ca. 3 weeks, 70 vol % ethanol/30 vol % propylene glycol, dose 2187 nmol/kg, mean ± SEM, read-out: Comedone Area (% Vehicle)) is reported as 17 ± 3%. For the same molecule, the “comedone area relative to vehicle-treated group (FIG. 8, 9, 10)” value (Rhino mouse [1]; [4]) was “insignificant effect” and the “comedone area relative to vehicle-treated group (FIG. 8)” value (Rhino mouse [1]; daily topical 3 weeks, 70 vol % ethanol/30 vol % propylene glycol, 694 nmole/kgBW/day) was “significant reduction”.
With C=C1[C@H](O)CC(=C/C=C2\CCC[C@]3(C)C([C@H](C)/C=C/[C@@H](C)C(C)(C)O)CC[C@@H]23)C[C@H]1O (stereo partly drawn) [24R-2MD2, 2-methylene-19-nor-(24R)-1α,25-dihydroxyvitamin D2] the “comedone area (FIG. 13)” value (Rhino mouse [2]; 2.3 nmole/kgBW/day) was “no significant reduction in comedone area” and the response vs control in vivo at 0.0023 µmol/kg (Rhino mouse [1]; Mus musculus, 504 h, daily topical ca. 3 weeks, 70 vol % ethanol/30 vol % propylene glycol, dose 2.3 nmol/kg, mean ± SEM, read-out: Comedone Area (% Vehicle)) was 176 ± 55%.
For C=C1[C@H](O)CC(=C/C=C2\CCC[C@]3(C)[C@@H]([C@@H](C)CCCC4(O)CCCC4)CC[C@@H]23)C[C@H]1O [CAGE-3, 19-nor-26,27-dimethylene-20(S)-2-methylene-1α,25-dihydroxyvitamin D3], the “comedone area (FIG. 12)” value (Rhino mouse [2]; 68 pmole/kgBW/day) was “reduction in the comedone area” and the “comedone area vs vehicle control (FIG. 3, FIG. 4)” value (Rhino mouse [1]; topical 3 weeks, 30 vol % ethanol/70 vol % propylene glycol, 0.9 ng/day (ca. 100 pmole/kgBW/day), reduced to 0.45 ng/day on day 10 and 0.22 ng/day on day 19) was “reduction in the comedone area; also recorded: reduced comedone area”.
In the case of C=C1[C@H](O)CC(=C/C=C2\CCC[C@@]3(C)C2CCC3[C@H](C)CC(F)F)C[C@H]1O (stereo partly drawn) [FF-44, 2-methylene-(20R)-23,23-difluoro-1α-hydroxy-19-nor-bishomopregnacalciferol], the response vs control in vivo at 0.069 µmol/kg (Rhino mouse [1]; [3]) is reported as 104 ± 20%, the response vs control in vivo at 0.217 µmol/kg (Rhino mouse [1]; [3]) is reported as 47 ± 12% and the “comedone area (FIG. 7, FIG. 10)” value (Rhino mouse [1]; [4]) is reported as “insignificant effect”. The “comedone area relative to vehicle-treated group (FIG. 8, 9, 10)” value (Rhino mouse [1]; [4]) was “significant reduction in comedone area”, the “comedone area relative to vehicle-treated group (FIG. 11)” value (Rhino mouse [1]; [5]) was “significant reduction in comedone area” and the “comedone area relative to vehicle-treated group (FIG. 11)” value (Rhino mouse [1]; [6]) was “significant reduction in comedone area”.
With C=C1[C@H](O)CC(=C/C=C2\CCC[C@@]3(C)C2CCC3[C@@H](C)CC(F)F)C[C@H]1O (stereo partly drawn) [FF-55, 2-methylene-(20S)-23,23-difluoro-1α-hydroxy-19-nor-bishomopregnancalciferol] the response vs control in vivo at 0.069 µmol/kg (Rhino mouse [1]; [3]) was 108 ± 35%, the response vs control in vivo at 0.217 µmol/kg (Rhino mouse [1]; [3]) was 53 ± 8% and the “comedone area (FIG. 7, FIG. 10)” value (Rhino mouse [1]; [4]) was “insignificant effect”. The “comedone area relative to vehicle-treated group (FIG. 8, 9, 10)” value (Rhino mouse [1]; [4]) was “significant reduction in comedone area”, the “comedone area relative to vehicle-treated group (FIG. 11)” value (Rhino mouse [1]; [5]) was “significant reduction in comedone area” and the “comedone area relative to vehicle-treated group (FIG. 11)” value (Rhino mouse [1]; [6]) was “significant reduction in comedone area”.
With C=C1[C@H](O)CC(=C/C=C2\CCC[C@]3(C)C([C@H](C)CCC[C@H](C)O)CC[C@@H]23)C[C@H]1O (stereo partly drawn) [NEL, 2-methylene-(20R,25S)-19,26-dinor-1α,25-dihydroxyvitamin D3] the “comedone area (FIG. 14)” value (Rhino mouse [2]; 7.5 nmole/kgBW/day) was “no significant reduction in comedone area”, the “comedone area (FIG. 14)” value (Rhino mouse [2]; 25 nmole/kgBW/day) was “no significant reduction in comedone area” and the response vs control in vivo at 0.0075 µmol/kg (Rhino mouse [1]; Mus musculus, 504 h, daily topical ca. 3 weeks, 70 vol % ethanol/30 vol % propylene glycol, dose 7.5 nmol/kg, mean ± SEM, read-out: Comedone Area (% Vehicle)) was 156 ± 34%. It also gave a response vs control in vivo at 0.025 µmol/kg (Rhino mouse [1]; Mus musculus, 504 h, daily topical ca. 3 weeks, 70 vol % ethanol/30 vol % propylene glycol, dose 25 nmol/kg, mean ± SEM, read-out: Comedone Area (% Vehicle)) of 145 ± 24%.
For C=C1[C@H](O)CC(=C/C=C2\CCC[C@@H]3C([C@@H](C)CCCC(C)(C)O)CC[C@@H]23)C[C@H]1O (stereo partly drawn) [VD-03, 2-methylene-18,19-dinor-(20S)-1α,25-dihydroxyvitamin D3], the response vs control in vivo at 0.00062 µmol/kg (Rhino mouse [1]; Mus musculus, 504 h, daily topical ca. 3 weeks, 70 vol % ethanol/30 vol % propylene glycol, dose 0.62 nmol/kg, mean ± SEM, read-out: Comedone Area (% Vehicle)) was 90 ± 14%.
